Reference: patent US12685735B2 (Foghorn Therapeutics Inc., priority 2020, dated 2026)

Key:
BRG-1 = BRG-1 (Homo sapiens, UniProt P51532); assay: ATPase catalytic activity assay of BRG-1 (ADP-Glo); format: biochemical; conditions: ATPase catalytic activity, ADP-Glo; for IC50: read-out: BRG1 IC50 (μM)*; for Emax: read-out: BRG1 Max % Inhibition
In short: (§1)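 ATPase activity of BRG-1 or BRM was read by ADP-Glo. Residual ATP was depleted (40 min, room temperature), then ADP was converted to ATP (60 min, room temperature) and measured as luciferase luminescence.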

BRM = BRM (Homo sapiens, UniProt P51531); assay: ATPase catalytic activity assay of BRM (ADP-Glo); format: biochemical; conditions: for IC50: read-out: BRM IC50 (μM)*
BRM, sequence (P51531 whole entry): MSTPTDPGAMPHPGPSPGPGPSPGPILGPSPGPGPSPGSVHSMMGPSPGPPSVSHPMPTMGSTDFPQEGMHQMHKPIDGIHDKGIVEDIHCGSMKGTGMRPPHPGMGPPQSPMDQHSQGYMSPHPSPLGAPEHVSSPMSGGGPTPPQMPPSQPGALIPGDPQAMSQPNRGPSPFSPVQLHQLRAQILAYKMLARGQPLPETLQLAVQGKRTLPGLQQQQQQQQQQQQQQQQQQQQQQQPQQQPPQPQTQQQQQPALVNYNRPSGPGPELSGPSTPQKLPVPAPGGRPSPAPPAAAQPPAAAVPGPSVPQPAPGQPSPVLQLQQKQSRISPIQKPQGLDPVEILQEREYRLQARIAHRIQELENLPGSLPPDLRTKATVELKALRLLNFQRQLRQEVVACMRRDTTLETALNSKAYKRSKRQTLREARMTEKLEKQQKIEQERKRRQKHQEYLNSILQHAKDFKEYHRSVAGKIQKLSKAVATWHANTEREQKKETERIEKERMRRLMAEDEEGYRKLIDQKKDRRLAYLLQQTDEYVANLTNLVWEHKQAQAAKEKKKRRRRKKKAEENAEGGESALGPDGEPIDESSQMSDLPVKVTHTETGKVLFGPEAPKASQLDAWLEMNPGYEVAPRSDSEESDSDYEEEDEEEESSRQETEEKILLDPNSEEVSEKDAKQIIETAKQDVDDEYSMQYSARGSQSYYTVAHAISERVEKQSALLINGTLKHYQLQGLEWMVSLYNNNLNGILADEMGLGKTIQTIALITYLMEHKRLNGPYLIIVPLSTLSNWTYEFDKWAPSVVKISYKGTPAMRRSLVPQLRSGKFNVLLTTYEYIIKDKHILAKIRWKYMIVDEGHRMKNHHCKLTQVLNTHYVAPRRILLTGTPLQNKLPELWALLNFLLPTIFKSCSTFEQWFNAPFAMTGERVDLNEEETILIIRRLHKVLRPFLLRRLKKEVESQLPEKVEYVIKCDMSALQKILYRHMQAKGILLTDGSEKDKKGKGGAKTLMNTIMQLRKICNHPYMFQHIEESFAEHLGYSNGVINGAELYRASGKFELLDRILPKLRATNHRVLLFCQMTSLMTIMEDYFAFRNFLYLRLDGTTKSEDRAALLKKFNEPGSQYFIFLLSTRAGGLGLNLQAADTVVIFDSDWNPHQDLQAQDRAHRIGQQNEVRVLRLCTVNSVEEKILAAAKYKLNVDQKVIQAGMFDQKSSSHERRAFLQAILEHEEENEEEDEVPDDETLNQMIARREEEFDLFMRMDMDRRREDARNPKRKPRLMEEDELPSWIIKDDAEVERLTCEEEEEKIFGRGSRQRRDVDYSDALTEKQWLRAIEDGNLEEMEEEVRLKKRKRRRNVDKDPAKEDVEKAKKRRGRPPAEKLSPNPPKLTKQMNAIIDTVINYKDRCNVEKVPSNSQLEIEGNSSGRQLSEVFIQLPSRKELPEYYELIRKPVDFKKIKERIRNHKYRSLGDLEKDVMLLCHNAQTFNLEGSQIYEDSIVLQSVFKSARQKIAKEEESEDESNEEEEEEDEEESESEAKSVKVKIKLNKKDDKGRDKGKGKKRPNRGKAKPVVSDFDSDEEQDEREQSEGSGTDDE
In short: as §1

BRG-1, sequence (P51532 whole entry): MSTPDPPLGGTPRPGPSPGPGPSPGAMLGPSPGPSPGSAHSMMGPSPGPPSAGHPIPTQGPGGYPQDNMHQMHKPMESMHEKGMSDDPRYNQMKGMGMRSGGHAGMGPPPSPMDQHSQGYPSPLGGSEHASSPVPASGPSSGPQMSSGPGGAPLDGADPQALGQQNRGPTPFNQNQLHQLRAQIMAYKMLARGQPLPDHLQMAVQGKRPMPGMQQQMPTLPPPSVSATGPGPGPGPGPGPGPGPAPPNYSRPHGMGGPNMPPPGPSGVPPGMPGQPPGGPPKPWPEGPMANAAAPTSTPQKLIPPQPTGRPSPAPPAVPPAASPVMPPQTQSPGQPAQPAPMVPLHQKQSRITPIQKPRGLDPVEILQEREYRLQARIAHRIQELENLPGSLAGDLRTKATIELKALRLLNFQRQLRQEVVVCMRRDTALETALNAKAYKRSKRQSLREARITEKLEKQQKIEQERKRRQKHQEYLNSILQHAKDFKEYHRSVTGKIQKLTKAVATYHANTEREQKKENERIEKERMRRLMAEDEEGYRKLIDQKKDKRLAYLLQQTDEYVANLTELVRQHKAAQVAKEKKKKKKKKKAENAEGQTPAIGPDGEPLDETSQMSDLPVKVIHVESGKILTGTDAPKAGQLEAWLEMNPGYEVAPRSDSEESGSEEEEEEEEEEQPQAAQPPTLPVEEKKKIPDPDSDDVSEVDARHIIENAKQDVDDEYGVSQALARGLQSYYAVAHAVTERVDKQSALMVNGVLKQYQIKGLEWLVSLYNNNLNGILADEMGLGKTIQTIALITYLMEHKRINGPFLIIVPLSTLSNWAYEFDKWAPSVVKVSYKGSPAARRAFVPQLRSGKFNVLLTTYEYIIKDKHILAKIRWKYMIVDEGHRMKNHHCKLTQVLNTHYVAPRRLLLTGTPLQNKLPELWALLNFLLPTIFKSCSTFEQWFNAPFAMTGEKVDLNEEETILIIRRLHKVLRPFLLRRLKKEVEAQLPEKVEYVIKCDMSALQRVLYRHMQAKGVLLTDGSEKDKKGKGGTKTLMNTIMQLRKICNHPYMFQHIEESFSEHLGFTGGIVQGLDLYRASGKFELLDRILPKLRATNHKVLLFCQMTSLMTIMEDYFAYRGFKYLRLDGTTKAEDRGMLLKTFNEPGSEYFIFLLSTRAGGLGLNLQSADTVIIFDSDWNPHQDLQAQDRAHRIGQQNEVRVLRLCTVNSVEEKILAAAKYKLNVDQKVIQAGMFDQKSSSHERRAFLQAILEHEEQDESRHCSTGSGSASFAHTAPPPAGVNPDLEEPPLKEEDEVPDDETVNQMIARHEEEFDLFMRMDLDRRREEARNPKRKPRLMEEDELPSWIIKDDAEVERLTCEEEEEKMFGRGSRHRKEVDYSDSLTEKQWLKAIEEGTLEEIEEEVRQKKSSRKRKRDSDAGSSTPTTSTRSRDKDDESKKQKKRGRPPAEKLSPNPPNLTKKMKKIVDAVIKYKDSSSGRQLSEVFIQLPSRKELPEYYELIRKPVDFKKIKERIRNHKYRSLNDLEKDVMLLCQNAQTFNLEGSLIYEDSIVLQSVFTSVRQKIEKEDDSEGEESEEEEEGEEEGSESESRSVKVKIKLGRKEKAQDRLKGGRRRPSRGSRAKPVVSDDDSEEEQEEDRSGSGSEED

Row | SMILES | IC50 (BRG-1) | Emax (BRG-1) | BRM Max % Inhibition (BRM) | IC50 (BRM) | BRG1 Max % Inhibition (BRG-1)
1 | C[C@@]1(C#N)COCc2ccc(C(=O)NCC(=O)Nc3nc(-c4cccc(C5CCO5)c4)cs3)cc21 (stereo partly drawn) [Compound 371, (R)-4-cyano-4-methyl-N-(2-((4-(3-(oxetan-2-yl)phenyl)thiazol-2-yl)amino)-2-oxoethyl)isochromane-6-carboxamide] | 0.1 to 1 µM | > 95% | >95% | < 0.1 µM | –
2 | CC(C)S(=O)(=O)c1cccc(C(=O)NCC(=O)Nc2nc(-c3cccc(-c4cccc(C#N)n4)n3)cs2)c1 [Compound 118, N-[2-[[4-[6-(6-cyano-2-pyridyl)-2-pyridyl]thiazol-2-yl]amino]-2-oxo-ethyl]-3-isopropylsulfonyl-benzamide] | > 5 µM | < 30% | >70% | 0.1 to 1 µM | –
3 | Cc1ccc(C(=O)NCC(=O)Nc2nc(-c3cccc(N4C[C@@H](C)O[C@@H](C)C4)c3)cs2)cc1C(C)(C)CO [Compound 238, N-(2-((4-(3-((cis)-2,6-dimethylmorpholino)phenyl)thiazol-2-yl)amino)-2-oxoethyl)-3-(1-hydroxy-2-methylpropan-2-yl)-4-methylbenzamide] | 0.1 to 1 µM | > 90% | >95% | < 0.1 µM | –
4 | COC(=O)N1CCC(c2csc(NC(=O)CNC(=O)c3ccc4c(c3)[C@](C)(F)COC4)n2)CC1 [Compound 281, methyl (S)-4-(2-(2-(4-fluoro-4-methylisochromane-6-carboxamido)acetamido)thiazol-4-yl)piperidine-1-carboxylate] | 1 to 5 µM | > 90% | >90% | 0.1 to 1 µM | –
5 | C[C@@]1(C#N)COCc2ccc(C(=O)NCC(=O)Nc3nc(-c4cccc(N5CC(F)(F)C5)c4)cs3)cc21 [Compound 342, (R)-4-cyano-N-(2-((4-(3-(3,3-difluoroazetidin-1-yl)phenyl)thiazol-2-yl)amino)-2-oxoethyl)-4-methylisochromane-6-carboxamide] | 0.1 to 1 µM | > 95% | >95% | < 0.1 µM | –
6 | CC1(C#N)CCc2ccc(C(=O)NCC(=O)Nc3nc(-c4cccc(-c5ccncc5)c4)cs3)cc21 (centres unmarked) [Compound 76, 3-cyano-3-methyl-N-(2-oxo-2-((4-(3-(pyridin-4-yl)phenyl)thiazol-2-yl)amino)ethyl)-2,3-dihydro-1H-indene-5-carboxamide] | < 0.1 µM | > 80% | >95% | < 0.1 µM | –
7 | CN1CCOc2ccc(-c3csc(NC(=O)CNC(=O)c4ccc5c(c4)[C@](C)(CO)CC5)n3)cc21 [Compound 173, (R)-3-(hydroxymethyl)-3-methyl-N-(2-((4-(4-methyl-3,4-dihydro-2H-benzo[b][1,4]oxazin-6-yl)thiazol-2-yl)amino)-2-oxoethyl)-2,3-dihydro-1H-indene-5-carboxamide] | 0.1 to 1 µM | > 80% | >95% | 0.1 to 1 µM | –
8 | C[C@@H]1CN(c2cccc(-c3csc(NC(=O)CNC(=O)c4ccc5c(c4)[C@](C)(C#N)COC5)n3)c2)C[C@H](C)O1 [Compound 254, (R)-4-cyano-N-(2-((4-(3-((cis)-2,6-dimethylmorpholino)phenyl)thiazol-2-yl)amino)-2-oxoethyl)-4-methylisochroman-6-carboxamide] | < 0.1 µM | > 95% | >95% | < 0.1 µM | –
9 | C[C@@H]1CN(c2cccc(-c3csc(NC(=O)CNC(=O)c4ccc5c(c4)C(F)(C(F)F)COC5)n3)c2)C[C@H](C)O1 (stereo in doubt) [Compound 307, (R)-4-(difluoromethyl)-N-(2-((4-(3-((cis)-2,6-dimethylmorpholino)phenyl)thiazol-2-yl)amino)-2-oxoethyl)-4-fluoroisochromane-6-carboxamide] | < 0.1 µM | > 95% | >95% | < 0.1 µM | –
10 | O=C(CNC(=O)c1ccc2c(c1)[C@@](F)(C(F)F)COC2)Nc1nc(-c2cc(F)cc(N3CCC3)c2)cs1 [Compound 277, (S)-N-(2-((4-(3-(azetidin-1-yl)-5-fluorophenyl)thiazol-2-yl)amino)-2-oxoethyl)-4-(difluoromethyl)-4-fluoroisochromane-6-carboxamide] | < 0.1 µM | > 95% | >95% | < 0.1 µM | –
11 | C[C@@H]1CN(c2cccc(-c3csc(NC(=O)CNC(=O)c4ccc5c(c4)[C@](C)(CO)CC5)n3)n2)C[C@H](C)O1 [Compound 223, (R)-N-(2-((4-(6-((cis)-2,6-dimethylmorpholino)pyridin-2-yl)thiazol-2-yl)amino)-2-oxoethyl)-3-(hydroxymethyl)-3-methyl-2,3-dihydro-1H-indene-5-carboxamide] | 1 to 5 µM | > 80% | >95% | < 0.1 µM | –
12 | C[C@@H]1CN(c2cccc(-c3csc(NC(=O)CNC(=O)c4ccc5c(c4)[C@](C)(CO)CC5)n3)c2)C[C@H](C)O1 [Compound 218, (R)-N-(2-((4-(3-((cis)-2,6-dimethylmorpholino)phenyl)thiazol-2-yl)amino)-2-oxoethyl)-3-(hydroxymethyl)-3-methyl-2,3-dihydro-1H-indene-5-carboxamide] | 1 to 5 µM | > 80% | >90% | 0.1 to 1 µM | –
13 | CC(C)S(=O)(=O)c1cc(CO)cc(C(=O)NCC(=O)Nc2nc(-c3cccc(-c4ccncc4)c3)cs2)c1 [Compound 15, 3-(hydroxymethyl)-5-(isopropylsulfonyl)-N-(2-oxo-2-((4-(3-(pyridin-4-yl)phenyl)thiazol-2-yl)amino)ethyl)benzamide] | > 5 µM | > 40% | >50% | 1 to 5 µM | –
14 | C[C@@H]1CN(c2cccc(-c3csc(NC(=O)CNC(=O)c4cccc([C@@H]5COC[C@H]5O)c4)n3)c2)C[C@H](C)O1 [Compound 157, N-(2-((4-(3-((cis)-2,6-dimethylmorpholino)phenyl)thiazol-2-yl)amino)-2-oxoethyl)-3-((3R,4S)-4-hydroxytetrahydrofuran-3-yl)benzamide] | > 5 µM | > 30% | >70% | 0.1 to 1 µM | –
15 | Cc1cc(-c2cccc(-c3csc(NC(=O)CNC(=O)c4cccc(C(C)(C)CO)c4)n3)c2)nc(C)n1 [Compound 94] | < 0.1 µM | – | >95% | < 0.1 µM | >95%
16 | CN1C(=O)CCc2ccc(-c3csc(NC(=O)CNC(=O)c4ccc5c(c4)[C@@](C)(CO)CC5)n3)cc21 [Compound 260, (S)-3-(hydroxymethyl)-3-methyl-N-(2-((4-(1-methyl-2-oxo-1,2,3,4-tetrahydroquinolin-7-yl)thiazol-2-yl)amino)-2-oxoethyl)-2,3-dihydro-1H-indene-5-carboxamide] | > 5 µM | > 30% | >60% | 1 to 5 µM | –
17 | C[C@@H]1CN(c2cccc(-c3csc(NC(=O)CNC(=O)c4ccc5c(c4)[C@@](C)(C#N)CC5)n3)n2)C[C@H](C)O1 [Compound 262, (S)-3-cyano-N-(2-((4-(6-((cis)-2,6-dimethylmorpholino)pyridin-2-yl)thiazol-2-yl)amino)-2-oxoethyl)-3-methyl-2,3-dihydro-1H-indene-5-carboxamide] | 1 to 5 µM | > 50% | >80% | 1 to 5 µM | –
